Experimental data as given in PubChem BioAssay (NCI).
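Tested at 5 concentrations; 48 h exposure; 96-well plates; endpoints linearly interpolated, else capped at highest concentration. GI50 is the concentration that inhibits growth by half. TGI marks complete inhibition of growth.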

Tests used:
Assay in all cases: NCI anticancer screen, dose series, 48 h
SK-OV-3 ovarian = tested on: SK-OV-3 ovarian
SN12C renal = tested on: SN12C renal
SW-620 colon = tested on: SW-620 colon
HOP-92 NSCLC = tested on: HOP-92 NSCLC
SNB-75 CNS = tested on: SNB-75 CNS
NCI/ADR-RES ovarian = tested on: NCI/ADR-RES ovarian
SF-539 CNS = tested on: SF-539 CNS
MALME-3M melanoma = tested on: MALME-3M melanoma
NCI-H23 lung = tested on: NCI-H23 lung
SF-295 CNS = tested on: SF-295 CNS

Row | SMILES | TGI (SK-OV-3 ovarian) | TGI (SN12C renal) | TGI (SW-620 colon) | TGI (HOP-92 NSCLC) | TGI (SNB-75 CNS) | TGI (NCI/ADR-RES ovarian) | TGI (SF-539 CNS) | TGI (MALME-3M melanoma) | TGI (NCI-H23 lung) | TGI (SF-295 CNS) | GI50 (SK-OV-3 ovarian) | GI50 (SN12C renal) | GI50 (SW-620 colon) | GI50 (HOP-92 NSCLC) | GI50 (SNB-75 CNS) | GI50 (NCI/ADR-RES ovarian) | GI50 (SF-539 CNS) | GI50 (MALME-3M melanoma) | GI50 (NCI-H23 lung) | GI50 (SF-295 CNS)
1 | CN(/N=C/c1cccc2cccnc12)c1ccc([N+](=O)[O-])cc1[N+](=O)[O-] | 52.8 µM | > 100 µM | > 100 µM | 42.7 µM | 25.8 µM | > 100 µM | 32.1 µM | 70.2 µM | 50.1 µM | 33 µM | – | – | – | – | – | – | – | – | – | –
2 | CCN(Cc1cc(Nc2nc(C)cn3c(-c4cn[nH]c4)cnc23)sn1)C(C)(C)CO | 3.38 µM | 10.5 µM | 5.08 µM | 0.0714 µM | 0.0365 µM | > 44.7 µM | 0.118 µM | 16.2 µM | 7.09 µM | 3.36 µM | 0.0241 µM | 0.0301 µM | < 0.0107 µM | 0.0119 µM | 0.0107 µM | 1.12 µM | 0.0179 µM | 0.648 µM | 0.191 µM | 0.0468 µM
3 | N#CC1(C#N)C2(c3ccccc3)OC(c3ccccc3)(c3cc4ccccc4cc32)C1(C#N)C#N | 37.4 µM | 36.2 µM | 9.72 µM | 7.05 µM | 30.1 µM | 43.8 µM | 29.6 µM | 37.9 µM | 16.6 µM | 29.9 µM | – | – | – | – | – | – | – | – | – | –
4 | O=C1C(Cl)=C(Nc2cccc(Cl)c2)C(=O)N1Cc1ccc(Cl)cc1 | 24.6 µM | 5.93 µM | 9.97 µM | 4.96 µM | 14.6 µM | 3.28 µM | 2.37 µM | 2.84 µM | 2.12 µM | 15.6 µM | 6.34 µM | 1.24 µM | 0.323 µM | 1.3 µM | 1.48 µM | 0.298 µM | 0.196 µM | 0.137 µM | 0.378 µM | 0.532 µM
5 | COC(=O)C1CC23CCCN4CCC5(c6ccccc6N(C=O)C15CC2)C43 (stereo not given) | > 100 µM | > 100 µM | > 100 µM | > 100 µM | > 100 µM | > 100 µM | > 100 µM | > 100 µM | > 100 µM | > 100 µM | – | – | – | – | – | – | – | – | – | –
